Source: patent EP0560232A1, “Novel 7-aminolabdanes, a process for their preparation and their use as pharmaceutical agents” (HOECHST AKTIENGESELLSCHAFT, priority 1992, dated 1993)

Experiments:
[1] = test system: Isolated Rat Portal Vein; assay: Potassium channel opening activity, isolated rat portal vein model (KCl-induced contractions); conditions: Dose 10^-6 Mol, 5 min incubation, n=5, mean + SEM, vehicle D.W. or DMSO; for Percent Inhibition Activity KCl20 mM: reduction of KCl 20 mM induced contraction; for Percent Inhibition Activity KCl80 mM: reduction of KCl 80 mM induced contraction
Experimental: Potassium channel opening activity: - Isolated Rat Portal Vein model.
Normal male albino rats of the Charles Foster strain of weight range 200 to 250 g were used.
After sacrificing the animal, abdomen was opened and portal vein was isolated and mounted in an organ bath containing Kerb's solution. The bath was maintained at 37°C and aerated with 95 vol.% oxygen and 5 vol.% carbon dioxide gas mixture. The tissue was kept under 0.5 to 1 g tension and allowed to stabilise for about 30 minutes. KCl₂₀ and KCl₈₀ mM induced cumulative concentrations were measured-through Hugo Sachs Force displacement transducer (K-30) and recorded on 4 channel digital recorder. After taking 2 control responses, the tissue was incubated with test substance for 5 minutes and dose response was repeated. The percent reduction in KCl₂₀ and KCl₈₀ mM induced contractions were calculated from the control values. Standard potassium channel opener selectively blocks the KCl₂₀ induced contractions without affecting the KCl₈₀ mM induced responses. […] The test compounds were administered in a volume of 0.2 ml per concentration. All results are expressed as mean + SEM.

[2] = test system: Hypovolemic rats; assay: Blood pressure lowering activity in hypovolemic rats; type: in vivo; conditions: for Blood pressure (mm Hg) Initial: before drug
Experimental: Hypovolemic rats were used for this activity. Hypovolemic rats were prepared by the administration of 100 mg/kg furosemide intra peritoneally 1 hour prior to the actual experiment. After administering furosemide the rats were anesthesised with 1.5 g/kg urethane given i.p. The right carotid artery was cannulated and blood pressure was mentioned on a physiological recorder by connecting the carotial cannula to a pressure transducer. The left jugular vein was cannulated for i.v. administration of test substances - intra duodenal (i.d.) administration is made by exposing a portion of the duodenum through a small incision made in the abdomen below the sternum. Blood pressure was monitored for 10 minutes in case of i.v. administration and for 90 to 120 minutes when the drug was administered by the i.d. route.

Row | Compound | Percent Inhibition Activity KCl20 mM [1] | Percent Inhibition Activity KCl80 mM [1] | Blood pressure % change ([2]; 10 mg/kg i.v.) [%] | Blood pressure (mm Hg) Post drug ([2]; 10 mg/kg i.v.) [mm Hg] | Blood pressure duration ([2]; 10 mg/kg i.v.) [min] | Blood pressure (mm Hg) Initial ([2]; group dosed 10 mg/kg i.v.) [mm Hg] | Blood pressure % change ([2]; 30 mg/kg i.d.) [%] | Blood pressure (mm Hg) Post drug ([2]; 30 mg/kg i.d.) [mm Hg] | Blood pressure duration ([2]; 30 mg/kg i.d.) [min] | Blood pressure (mm Hg) Initial ([2]; group dosed 30 mg/kg i.d.) [mm Hg]
1 | C=C[C@@]1(C)CC(=O)[C@H]2[C@](C)(O1)[C@H](N)C=C1C(C)(C)CCC[C@@]12C [(α)NH2, 7α-Amino-8,13-epoxy-labd-5,14-dien-11-one] | 57+9% | 34+9% | -20.5±3 | 68±4 | 5 | 87±9 | – | – | – | –
2 | C=C[C@@]1(C)CC(=O)[C@H]2[C@](C)(O1)[C@H](NC(C)=O)C=C1C(C)(C)CCC[C@@]12C [(α)NHCOCH3, 7α-Acetylamino-8,13-epoxy-labd-5,14-dien-11-one] | 34+10% | 5+2% | – | – | – | – | -15.4±3 | 80±4 | 30 | 94±3
3 | C=C[C@@]1(C)CC(=O)[C@@]2(O)[C@](C)(O1)[C@@H](N)C=C1C(C)(C)CC[C@H](O)[C@@]12C [(β)NH2, 7β-Amino-1α,9α-dihydroxy-8,13-epoxy-labd-5,14-dien-11-one] | – | – | – | 38±2 | >70 | 90±10 | – | – | – | –
